From patent US20210177879A1, “VITAMIN D RECEPTOR AGONIST” (Guanghzou University of Chinese Medicine, priority 2018, published 2021)

Tested on: vitamin D receptor
Test: Expression of vitamin D receptor in colon tissues, Experiment 2 (Western blot, immunohistochemistry)
Type: in vivo, Balb/c mice
Settings: compared with the blank group; VD3 0.2 mg/kg, four compounds 2 mg/kg
Description: Experimental method: 70 Balb/c mice of 6-8 weeks were purchased from the Experimental Animal Center in Guangzhou University of Chinese Medicine, weighed about 18-22 g, and subjected to adaptive feeding for 10 days. Modeling was divided into three stages. In the first stage, except for the normal group of animals being given saline injection, each of the other animals were intraperitoneally injected with a carcinogen AOM (10 mg/kg), and given free access to 2% DSS water from the next day for 7 days, and then given access to replaced regular drinking water for 14 days. In the second stage, the animals were given free access to 2% DSS water for 10 days, and then given access to replaced regular drinking water for 14 days. In the third stage, the animals were given free access to 2% DSS water for 10 days, and then given access to replaced regular drinking water for 11 days. The normal group was given access to regular drinking water throughout the experiment. The diet, water drinking and body weights of the animals were recorded daily and DAI scores were made, and the animals were killed and harvested at the 10th week. In this experiment, the animals were divided into groups and administrated on the first day of a modeling period of the second stage, where a total of 7 groups were set, each group including 10 animals. The first group was a blank control group (control) that was given access to drinking water by gavage; the second group was a model group (model), in which a total of 10 animals were given access to drinking water by gavage; the third group was a vitamin D3 positive administration control group (VD3, 0.2 mg/kg); and the fourth to seventh groups were given monotropein, desacetyl asperulosidic acid, asperuloside, and asperulosidic acid (groups labeled as: Mo, As, Aa, Da), respectively at a given dose of 2 mg/kg. Dosing was conducted once a day until the end of the experiment. At the end of the experiment, the animals were anesthetized and harvested, and the colon tissue was taken, measured with a ruler for the length, and measured with a vernier caliper for the thickness. The effects of monotropein, desacetyl asperulosidic acid, asperuloside and asperulosidic acid on expression of the vitamin D receptor were detected.

O=C(O)C1=CO[C@@H](O[C@@H]2O[C@H](CO)[C@@H](O)[C@H](O)[C@H]2O)[C@H]2[C@@H]1C=C[C@]2(O)CO [monotropein]
expression of the vitamin D receptor in the colon tissues (Western blot and immunohistochemistry): promote expression enhancement
